This is an account of results in patent US20110160256A1, “INHIBITORS OF AKT ACTIVITY” (priority 2008, published 2011).

The experiment concerns the target T1, full length AKT1 (Homo sapiens, UniProt P31749).
T1 construct: Full-length human AKT1 gene was amplified by PCR; His6 tag from the pFastBacHTb vector (own knowledge: N-terminal His6, spacer and TEV site; supported by the nickel purification) (N); made in house; host or cells: baculovirus-infected insect cells (virus produced in Sf9; T. ni cells infected; purification text says sf9 cells)
Put plainly: Full-length AKT enzyme assay (substrate phosphorylation, SPA). It counts as biochemical. The conditions noted are these: in at least one experimental run; 10 nM activated AKT enzyme, 4 uM ATP; pIC50 = -log(IC50), IC50 in molar units; read-out: pIC50 value against full length AKT1 (converted). From the text:
Cloning of Full-Length Human (FL) AKT1:
Full-length human AKT1 gene was amplified by PCR from a plasmid containing myristylated-AKT1-ER (gift from Robert T. Abraham, Duke University under MTA, described in Klippel et al. in Molecular and Cellular Biology 1998 Volume 18 p. 5699) using the 5′ primer: SEQ. ID NO: 2 5′ […] 3′ and the 3′ primer: SEQ. ID NO: 3 […] 3′. The 5′ primer included a BamHI site and the 3′ primer included an XhoI site for cloning purposes. The resultant PCR product was subcloned in pcDNA3 as a BamHI/XhoI fragment. A mutation in the sequence (TGC) coding for a Cysteine^25 was converted to the wild-type AKT1 sequence (CGC) coding for an Arginine^25 by site-directed mutagenesis using the QuikChange® Site Directed Mutagenesis Kit (Stratagene). The AKT1 mutagenic primer: SEQ. ID NO: 4 5′ […] and selection primer: SEQ. […] For expression/purification purposes, AKT1 was isolated as a BamHI/XhoI fragment and cloned into the BamHI/XhoI sites of pFastbacHTb (Invitrogen).
Expression of FL Human AKT1:
Expression was done using the BAC-to-BAC Baculovirus Expression System from Invitrogen (catalog #10359-016). […]
Compounds of the present invention were tested for AKT 1, 2, and 3 protein serine kinase inhibitory activity in substrate phosphorylation assays. […] Substrate phosphorylation was detected by the following procedure. […]

Where “and” joins values, the source holds several entries; their conditions need not be identical. Equal values may be shown once.

T1 sequence (P31749 whole entry): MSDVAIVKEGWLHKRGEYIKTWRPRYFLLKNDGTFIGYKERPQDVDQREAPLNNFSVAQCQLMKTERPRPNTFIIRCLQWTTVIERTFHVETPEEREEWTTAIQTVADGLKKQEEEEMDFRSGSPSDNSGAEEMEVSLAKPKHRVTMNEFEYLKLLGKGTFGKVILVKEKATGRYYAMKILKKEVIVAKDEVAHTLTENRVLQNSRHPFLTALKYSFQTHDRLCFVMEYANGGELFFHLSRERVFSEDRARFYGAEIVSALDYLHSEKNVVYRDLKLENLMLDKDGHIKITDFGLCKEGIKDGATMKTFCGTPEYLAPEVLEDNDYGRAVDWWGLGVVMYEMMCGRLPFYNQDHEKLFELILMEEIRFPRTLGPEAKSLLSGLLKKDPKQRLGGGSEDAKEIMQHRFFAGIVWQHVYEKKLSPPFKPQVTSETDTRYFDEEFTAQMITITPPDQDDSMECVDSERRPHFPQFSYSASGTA

As to `Cn1nccc1-c1csc(C(=O)N[C@H](CN)Cc2cccc(F)c2)n1` [Example 1, N-{(1S)-2-amino-1-[(3-fluorophenyl)methyl]ethyl}-4-(1-methyl-1H-pyrazol-5-yl)-1,3-thiazole-2-carboxamide], the IC50 is ≤ 501 nM and 501 nM.
Turning to `Cn1nccc1-c1csc(C(=O)NC(CN)Cc2ccccc2)n1` (centres unmarked) [Example 3, N-[2-amino-1-(phenylmethyl)ethyl]-4-(1-methyl-1H-pyrazol-5-yl)-1,3-thiazole-2-carboxamide], the IC50 was no more than 501 nM.
